From PMC9916770, “Lycorine Carbamate Derivatives for Reversing P-glycoprotein-Mediated Multidrug Resistance in Human Colon Adenocarcinoma Cells” (International Journal of Molecular Sciences, 2023)

Columns and labels:
Colo205 cells = test: MTT antiproliferative assay, sensitive cells; assay type: cell-based, human; settings: for IC50: Homo sapiens, COLO 205, sensitive Colo205, MTT, 72 h, mean ± SD; for SI (selectivity index) C/A: IC50 MRC-5 / IC50 Colo205
Protocol: (§1) The human colon adenocarcinoma cell lines Colo205 doxorubicin-sensitive (CCL-222, ATCC, Manassas, VA, USA) and the resistant Colo320/MDR-LRP expressing P-gp were purchased from LGC Promochem (Teddington, UK). The MRC-5 human embryonal lung fibroblast cell line (CCL-171, ATCC) was purchased from Sigma-Aldrich (Merck KGaA, Darmstadt, Germany). The human colon adenocarcinoma cells (Colo205 and Colo320) were cultured in an RPMI 1640 medium supplemented with 10% fetal bovine serum (FBS), 2 mM L-glutamine, 1 mM Na-pyruvate, and 100 mM HEPES. The semi-adherent human colon cancer cells were detached with a trypsin-Versene (EDTA) solution for 5 min at 37 °C. The MRC-5 human embryonal lung fibroblast cells were cultured in EMEM containing 4.5 g/L of glucose and supplemented with a non-essential amino acid mixture, a selection of vitamins, and 10% FBS. The cell lines were incubated at 37 °C, 5% CO2, and 95% air atmosphere.
(§2) The antiproliferative effect of the compounds was tested in decreasing serial dilutions of compounds (starting with 100 µM, then two-fold serial dilution) on human cell lines (Colo205, Colo320, and MRC-5) in 96-well flat-bottomed microtiter plates. Firstly, the compounds were diluted in 100 µL of the medium, and then 6 × 10^3 cells (Colo205 and Colo320), in 100 µL of medium, were added to each well, excluding the medium control wells. The MRC-5 adherent cell line was seeded in the EMEM medium for at least 4 h before the assay. The two-fold serial dilutions of the compounds were made in a separate plate (100–0.19 μM) and then transferred to the plates containing the adherent corresponding cell line. Culture plates were incubated at 37 °C for 72 h, and at the end of the incubation period, 20 μL of MTT (thiazolyl blue tetrazolium bromide) solution (from a 5 mg/mL stock solution) was added to each well and incubated for an additional 4 h. Then, 100 μL of sodium dodecyl sulfate (SDS) solution (10% SDS in 0.01 M HCl) was added to each well, and the plates were further incubated at 37 °C overnight in a CO2 incubator. Cell growth was determined by measuring the optical density (OD) at 540/630 nm with a Multiscan EX ELISA reader (Thermo Labsystems, Cheshire, WA, USA). […] IC50 values and the standard deviation (SD) of triplicate experiments were calculated by using GraphPad Prism 5 software for Windows. Doxorubicin (2 mg/mL, Teva Pharmaceuticals, Budapest, Hungary) was used as a positive control and the vehicle DMSO as the negative control. (1) IC50=[ODsample−ODmedium control/ODcell control−ODmedium control]×100
(§3) The relative resistance (RR) was calculated as the ratio of the IC50 value in the resistant cancer cells and the IC50 in the sensitive cancer cell lines. The selectivity indexes (SI) were calculated as the ratio of the IC50 values in the non-tumor cells and the IC50 in the cancer cell lines. The activity of the compounds toward cancer cells is considered strongly selective if the selectivity index (SI) value is higher than 6, moderately selective if 3 < SI < 6, slightly selective if 1 < SI < 3, and non-selective if SI is lower than 1.

Colo320 cells [1] = test: MTT antiproliferative assay, resistant cells; assay type: cell-based, human; settings: for IC50: Homo sapiens, COLO 320, resistant Colo320, MTT, 72 h, mean ± SD, read-out: IC50 Colo320 (B); for SI (selectivity index) C/B: IC50 MRC-5 / IC50 Colo320
Protocol: as §1, §2, §3

MRC-5 cells = test: MTT antiproliferative assay, normal lung fibroblasts; assay type: cell-based; settings: Homo sapiens, normal embryonal lung fibroblasts, 72 h, mean ± SD, read-out: IC50 MCR-5 (C)
Protocol: as §1, §2, §3

Colo320 cells [2] = test: Checkerboard drug combination assay with doxorubicin; assay type: cell-based, human; settings: for Type of interaction: Colo320; for CI at IC50 (combination index): Colo320, 50% growth inhibition
Protocol: The interaction of lycorine (1) and some selected derivatives (2, 5, 9, 13, 16, 19, 25, and 26) in combination with the chemotherapeutic drug doxorubicin was performed by the checkerboard assay, a widely used technique for assessing drug interactions, in resistant human Colo320 colon adenocarcinoma cells. The type of drug–drug interaction was evaluated by using the Chou and Talalay method for drug combination and expressed using the combination index (CI) values, and therefore evaluated as synergism (CI < 1), additive (CI = 1), or antagonist (CI > 1).
Drug combination interactions between the compounds and the chemotherapeutic drug doxorubicin were assessed by the checkboard microplate assay on the resistant Colo320, expressing the P-gp transporter. Doxorubicin was serially diluted in the horizontal direction in 100 µL, starting with 8.6 µM, and the compounds were subsequently diluted in the vertical direction in 50 µL. The starting concentration was determined based on the IC50 values. The cells were resuspended in a culture medium and distributed into each well in 50 µL, containing 6 × 10^3 cells, to a final volume of 200 µL per well. The plates were incubated for 72 h at 37 °C in a CO2 incubator, and the cell growth was determined by the MTT staining method, as described previously. Drug interactions were evaluated using CompuSyn software to plot 4 or 5 data points for each ratio (ref software). The results were expressed in terms of combination index (CI) values of 50% growth inhibition, in which a CI value close to 1 indicates additivity, while a CI < 1 is defined as synergy, and a CI > 1 as antagonism.

Compound | IC50 (Colo205 cells) | IC50 (Colo320 cells [1]) | CI at IC50 (combination index) (Colo320 cells [2]) | IC50 (MRC-5 cells) | Type of interaction (Colo320 cells [2]) | SI (selectivity index) C/A (Colo205 cells) | SI (selectivity index) C/B (Colo320 cells [1])
O=C(OC1C=C2CCN3Cc4cc5c(cc4C(C1O)C23)OCO5)N1CCCCC1 (centres unmarked) [Compound 17, Lycorine 2-yl piperidine-1-carboxylate] | > 100 µM | > 100 µM | – | > 100 µM | – | – | –
O=C(OC1C=C2CCN3Cc4cc5c(cc4C(C1OC(=O)N1CCCC1)C23)OCO5)N1CCCC1 (centres unmarked) [Compound 14, Lycorine 1,2-diyl bis(pyrrolidine-1-carboxylate)] | > 100 µM | > 100 µM | – | > 100 µM | – | – | –
Cc1ccc(CNC(=O)OC2C=C3CCN4Cc5cc6c(cc5C(C2O)C34)OCO6)cc1 (centres unmarked) [Compound 6, Lycorine 2-yl (4-methylbenzyl)carbamate] | > 100 µM | > 100 µM | – | > 100 µM | – | – | –
O=C(OC1C=C2CCN3Cc4cc5c(cc4C(C1O)C23)OCO5)N1CCCC1 (centres unmarked) [Compound 15, Lycorine 2-yl pyrrolidine-1-carboxylate] | > 100 µM | > 100 µM | – | > 100 µM | – | – | –
O=C(NCCc1ccccc1)O[C@H]1C=C2CCN3Cc4cc5c(cc4[C@H]([C@@H]1O)[C@@H]23)OCO5 [Compound 10, lycorine 2-yl phenethylcarbamate] | > 100 µM | > 100 µM | – | > 100 µM | – | – | –
O=C(OC1C=C2CCN3Cc4cc5c(cc4C(C1O)C23)OCO5)N1CCOCC1 (centres unmarked) [Compound 3, Lycorine 2-yl morpholine-4-carboxylate] | > 100 µM | > 100 µM | – | > 100 µM | – | – | –
O=C(NCc1ccc2c(c1)OCO2)OC1C=C2CCN3Cc4cc5c(cc4C(C1O)C23)OCO5 (centres unmarked) [Compound 8, Lycorine 2-yl (piperonyl)carbamate] | > 100 µM | > 100 µM | – | > 100 µM | – | – | –
O=C(NCc1ccccc1)OC1C=C2CCN3Cc4cc5c(cc4C(C1OC(=O)NCc1ccccc1)C23)OCO5 (centres unmarked) [Compound 32, Lycorine 1,2-diyl bis(benzylcarbamate)] | > 100 µM | > 100 µM | – | 71.9 ± 5.38 µM | – | – | –
CC(C)(C)c1ccc(CNC(=O)OC2C=C3CCN4Cc5cc6c(cc5C(C2OC(=O)NCc2ccc(C(C)(C)C)cc2)C34)OCO6)cc1 (centres unmarked) [Compound 18, Lycorine 1,2-diyl bis[(4-(tert-butyl)benzyl)carbamate]] | > 100 µM | > 100 µM | – | > 100 µM | – | – | –
O=C(NCc1ccc(F)cc1)OC1C=C2CCN3Cc4cc5c(cc4C(C1O)C23)OCO5 (centres unmarked) [Compound 28, Lycorine 2-yl (4-fluorobenzyl)carbamate] | > 100 µM | > 100 µM | – | > 100 µM | – | – | –
O=C(NCCc1ccc(F)cc1)OC1C=C2CCN3Cc4cc5c(cc4C(C1OC(=O)NCCc1ccc(F)cc1)C23)OCO5 (centres unmarked) [Compound 23, Lycorine 1,2-diyl bis[(4-fluorophenethyl) carbamate]] | > 100 µM | > 100 µM | – | 3.79 ± 0.21 µM | – | <0.037 | <0.037
O=C(NCCc1ccc(F)cc1)OC1C=C2CCN3Cc4cc5c(cc4C(C1O)C23)OCO5 (centres unmarked) [Compound 24, Lycorine 2-yl (4-fluorophenethyl)carbamate] | > 100 µM | > 100 µM | – | > 100 µM | – | – | –
CCCNC(=O)OC1C=C2CCN3Cc4cc5c(cc4C(C1OC(=O)NCCC)C23)OCO5 (centres unmarked) [Compound 29, Lycorine 1,2-diyl bis(propylcarbamate)] | > 100 µM | > 100 µM | – | > 100 µM | – | – | –
O=C(NCc1ccc2c(c1)OCO2)OC1C=C2CCN3Cc4cc5c(cc4C(C1OC(=O)NCc1ccc4c(c1)OCO4)C23)OCO5 (centres unmarked) [Compound 7, Lycorine 1,2-diyl bis[(piperonyl)carbamate]] | > 100 µM | > 100 µM | – | > 100 µM | – | – | –
CN(Cc1ccccc1)C(=O)OC1C=C2CCN3Cc4cc5c(cc4C(C1O)C23)OCO5 (centres unmarked) [Compound 12, Lycorine 2-yl benzyl(methyl)carbamate] | > 100 µM | > 100 µM | – | > 100 µM | – | – | –
CCCNC(=O)OC1C=C2CCN3Cc4cc5c(cc4C(C1O)C23)OCO5 (centres unmarked) [Compound 30, Lycorine 2-yl propylcarbamate] | > 100 µM | > 100 µM | – | > 100 µM | – | – | –

More lines, main results first:

IC50 (Colo205 cells) | IC50 (Colo320 cells [1]) | CI at IC50 (combination index) (Colo320 cells [2]) | Compound | IC50 (MRC-5 cells) | Type of interaction (Colo320 cells [2]) | SI (selectivity index) C/A (Colo205 cells) | SI (selectivity index) C/B (Colo320 cells [1])
> 100 µM | > 100 µM | – | O=C(NCc1ccc(F)cc1)OC1C=C2CCN3Cc4cc5c(cc4C(C1OC(=O)NCc1ccc(F)cc1)C23)OCO5 (centres unmarked) [Compound 27, Lycorine 1,2-diyl bis[(4-fluorobenzyl)carbamate]] | > 100 µM | – | – | –
> 100 µM | > 100 µM | – | O=C(NCc1ccccc1F)OC1C=C2CCN3Cc4cc5c(cc4C(C1OC(=O)NCc1ccccc1F)C23)OCO5 (centres unmarked) [Compound 20, Lycorine 1,2-diyl bis[(2-fluorobenzyl)carbamate]] | > 100 µM | – | – | –
> 100 µM | > 100 µM | – | COc1ccc(CNC(=O)OC2C=C3CCN4Cc5cc6c(cc5C(C2O)C34)OCO6)cc1 (centres unmarked) [Compound 11, Lycorine 2-yl (4-methoxylbenzyl)carbamate] | > 100 µM | – | – | –
96.26 ± 0.33 µM | 78 ± 3.82 µM | 0.69 | O=C(OC1C=C2CCN3Cc4cc5c(cc4C(C1O)C23)OCO5)N1CCc2ccccc2C1 (centres unmarked) [Compound 13, Lycorine 2-yl 3,4-dihydroisoquinoline-2(1H)-carboxylate] | > 100 µM | Synergism | – | –
> 100 µM | > 100 µM | – | O=C(NCc1ccccc1F)OC1C=C2CCN3Cc4cc5c(cc4C(C1O)C23)OCO5 (centres unmarked) [Compound 21, Lycorine 2-yl (2-fluorobenzyl)carbamate] | > 100 µM | – | – | –
> 100 µM | > 100 µM | – | O=C(NCc1cccc(C(F)(F)F)c1)O[C@H]1[C@H]2c3cc4c(cc3CN3CCC(=C[C@@H]1OC(=O)NCc1cccc(C(F)(F)F)c1)[C@H]23)OCO4 [Compound 22, Lycorine 1,2-diyl bis[(3-(trifluoromethyl)benzyl)carbamate]] | > 100 µM | – | – | –
> 100 µM | > 100 µM | – | COc1ccc(CCNC(=O)OC2C=C3CCN4Cc5cc6c(cc5C(C2OC(=O)NCCc2ccc(OC)cc2)C34)OCO6)cc1 (centres unmarked) [Compound 4, Lycorine 1,2-diyl bis [(4-methoxyphenethyl)carbamate]] | > 100 µM | – | – | –
55.4 ± 1.63 µM | 26.6 ± 1.37 µM | 0.57 | O=C(OC1C=C2CCN3Cc4cc5c(cc4C(C1OC(=O)N1CCCCC1)C23)OCO5)N1CCCCC1 (centres unmarked) [Compound 16, Lycorine 1,2-diyl bis(piperidine-1-carboxylate)] | 59.2 ± 4.82 µM | Synergism | 1.06 | 2.22
